{"source": "patent US4962113A", "about": "“Pyridinium derivatives, their production and use” (Takeda Chemical Industries, Ltd, priority 1987, dated 1990)", "key": {"[1]": {"system": "platelet aggregation (PAF)", "assay": "Inhibitory action on PAF-induced rabbit platelet aggregation", "format": "cell-based", "conditions": "Oryctolagus cuniculus, read-out: inhibitory percentage (platelet aggregation); for inhibition at 3 µM: 3 × 10^-6 M; for inhibition at 0.3 µM: 3 × 10^-7 M", "in_short": "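Male rabbit citrated PRP, adjusted with PPP to about 500,000 platelets/μl, was stirred 2 min at 37 °C, then with test sample for 2 min before PAF addition. Aggregation was followed by aggregometry as maximum percent light transmission.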"}, "[2]": {"system": "PAF-induced bronchoconstriction", "assay": "PAF inhibitory action in bronchoconstriction", "format": "in vivo, guinea pig (Hartley)", "conditions": "oral, 30 mg/kg, one hour before PAF (0.3 μg/kg i.v.)", "procedure": "Female and male Hartley guinea pigs weighing about 400 g were fixed on the dorsal position under anesthesia with an ethylcarbamate (1.5 g/kg, intraperitoneally). One leg of a cannula (4 legs) was inserted into the trachea, and two of the remaining three legs were connected to an artificial respirator (Harvard apparatus rodent respirator). The remaining one leg (side tube) was connected to a bronchospasm transducer 7020 (Ugobasile).\nWhile the air volume per ventilation was adjusted to 5 to 7 ml and the air ventilation rate was controlled at 70 times/min., with a load pressure to the lung set at 10 cm H2 O, the overflown air volume was recorded on Rectigraph (Rectigraph-8S, San-ei Seiki Inc.) through a transducer. After 1 mg/kg of gallamine triethodide was given intravenously to the animals, histamine dihydrochloride (10 μg/kg) was applied intravenously to examine reaction of the animals. PAF(0.3 μg/kg) was administered intravenously, and, 30 sec. later, maximum bronchoconstriction was observed. Under these conditions, bronchoconstriction activity of the test samples was examined. The test sample was suspended in a 5% gum arabic solution, and given orally one hour before the administration of PAF. The compounds obtained in Production Examples 3 and 4 inhibited PAF-induced bronchoconstriction by oral administration (30 mg/kg)."}, "PAF-induced hypotension": {"system": "PAF-induced hypotension", "assay": "Inhibitory action on PAF-induced hypotension in rats", "format": "in vivo, rat (Sprague-Dawley)", "conditions": "Rattus norvegicus, read-out: Inhibitory Rate (Lowering of Blood Pressure); for inhibition in vivo at 0.01 mg/kg / inhibition in vivo at 0.03 mg/kg / inhibition in vivo at 0.1 mg/kg: iv; for inhibition in vivo at 1 mg/kg / inhibition in vivo at 3 mg/kg / inhibition in vivo at 10 mg/kg: oral", "in_short": "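Male Sprague-Dawley rats of about 250 g had cannulas placed in the femoral artery, for blood pressure recording via a pressure transducer, and in the femoral vein, for drug dosing. The hypotensive response to intravenous PAF (1 μg/kg) was measured first. Test samples were then given intravenously or orally, and PAF was given again. Percent inhibition compares the PAF-induced pressure drop (Δ mmHg) after treatment with the drop before treatment.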"}, "[3]": {"system": "Reversed Passive Arthus reaction", "assay": "Reversed Passive Arthus reaction", "format": "in vivo, rat (Sprague-Dawley)", "conditions": "oral, 6.25 mg/kg, one hour before antigen", "procedure": "Under ether anesthesia, the hair of the back of Sprague-Dawley male rats (7-week old, about 250 g body weight) was cut, and 0.5 ml of a 5% solution of gum arabia of a test compound relative to 100 g of the body weight of the animals was orally administered (one hour before injection of antigen). An antigen, egg albumin dissolved in physiological saline (5 mg/kg) was administered through the tail vein. Immediately, 0.1 ml each of a rabbit anti-egg albumin serum (containing 6 mg protein antibody/ml) was administered intracutaneously at one spot each of left- and right-hand sides of the back of rats. Three hours later, 1 ml of physiological saline containing 1% of Evans blue was given intravenously, and 30 minutes later, the skin of the animals was excised, and the area (mm^2) of blue spots was measured. The results were compared with those of the control group, and the inhibitory ratio was determined."}}, "note": "Read-outs that look alike come from different tables or passages of the source."}
{"smiles": "CCCCCCCCCCCCOCCOCCOC(=O)NCCN(C(=O)c1cc(Br)c[n+](CC)c1)c1ccccc1", "note": "[Production Example 4, 5-bromo-3-[N-[2-[2-(2-dodecyloxyethoxy)ethoxycarbonyl]]aminoethyl-N-phenyl]carbamoyl-1-ethylpyridinium iodide]", "values": [{"measurement": "inhibition at 3 µM", "setting": "[1]", "result": 100, "unit": "%"}, {"measurement": "inhibition at 0.3 µM", "setting": "[1]", "result": 100, "unit": "%"}, {"measurement": "inhibition at 0.03 µM", "setting": "[1]; 3 × 10^-8 M", "result": 100, "unit": "%"}, {"measurement": "inhibition of PAF-induced bronchoconstriction", "setting": "[2]", "result": 59.9, "unit": "%"}]}
{"smiles": "CCCCCCCCCCCCCCCCCCNC(=O)OCC(COC(=O)NCCN(C(=O)c1cc(Br)c[n+](CC)c1)c1ccccc1)OC", "note": "(centres unmarked) [Production Example 3, 5-bromo-3-[N-[2-(2-methoxy-3-octadecylcarbamoyloxyproxycarbonyl)]aminoethyl-N-phenyl]carbamoyl-1-ethyl pyridinium iodide]", "values": [{"measurement": "inhibition of PAF-induced bronchoconstriction", "setting": "[2]", "result": 64.9, "unit": "%"}]}
{"smiles": "CCC[n+]1cc(Br)cc(C(=O)N(CCOC(=O)NCCOC(=O)Nc2cccc3ccccc23)c2ccccc2)c1", "note": "[Production Example 10, 5-bromo-3-[N-[2-[2-(1-naphthylcarbamoyloxy)ethyl]carbamoyloxy]ethyl-N-phenyl]carbamoyl-1-propylpyridinium chloride]", "values": [{"measurement": "inhibition at 3 µM", "setting": "[1]", "result": 100, "unit": "%"}, {"measurement": "inhibition at 0.3 µM", "setting": "[1]", "result": 91, "unit": "%"}, {"measurement": "inhibition in vivo at 0.01 mg/kg", "setting": "PAF-induced hypotension; 1 hr.", "result": 65, "unit": "%"}, {"measurement": "inhibition in vivo at 0.01 mg/kg", "setting": "PAF-induced hypotension; 2 hr.", "result": 60, "unit": "%"}, {"measurement": "inhibition in vivo at 0.01 mg/kg", "setting": "PAF-induced hypotension; 4 hr.", "result": 53, "unit": "%"}, {"measurement": "inhibition in vivo at 0.01 mg/kg", "setting": "PAF-induced hypotension; 6 hr.", "result": 47, "unit": "%"}, {"measurement": "inhibition in vivo at 0.01 mg/kg", "setting": "PAF-induced hypotension; 8 hr.", "result": 36, "unit": "%"}, {"measurement": "inhibition in vivo at 0.03 mg/kg", "setting": "PAF-induced hypotension; 1 hr.", "result": 97, "unit": "%"}, {"measurement": "inhibition in vivo at 0.03 mg/kg", "setting": "PAF-induced hypotension; 2 hr.", "result": 84, "unit": "%"}, {"measurement": "inhibition in vivo at 0.03 mg/kg", "setting": "PAF-induced hypotension; 4 hr.", "result": 65, "unit": "%"}, {"measurement": "inhibition in vivo at 0.03 mg/kg", "setting": "PAF-induced hypotension; 6 hr.", "result": 55, "unit": "%"}, {"measurement": "inhibition in vivo at 0.03 mg/kg", "setting": "PAF-induced hypotension; 8 hr.", "result": 47, "unit": "%"}, {"measurement": "inhibition in vivo at 0.1 mg/kg", "setting": "PAF-induced hypotension; 1 hr.", "result": 100, "unit": "%"}, {"measurement": "inhibition in vivo at 0.1 mg/kg", "setting": "PAF-induced hypotension; 2 hr.", "result": 94, "unit": "%"}, {"measurement": "inhibition in vivo at 0.1 mg/kg", "setting": "PAF-induced hypotension; 4 hr.", "result": 89, "unit": "%"}, {"measurement": "inhibition in vivo at 0.1 mg/kg", "setting": "PAF-induced hypotension; 6 hr.", "result": 81, "unit": "%"}, {"measurement": "inhibition in vivo at 0.1 mg/kg", "setting": "PAF-induced hypotension; 8 hr.", "result": 76, "unit": "%"}, {"measurement": "inhibition in vivo at 0.01 mg/kg", "setting": "PAF-induced hypotension; 5 min, i.v., 5 min.", "result": 79, "unit": "%"}, {"measurement": "inhibition in vivo at 0.03 mg/kg", "setting": "PAF-induced hypotension; 5 min, i.v., 5 min.", "result": 100, "unit": "%"}, {"measurement": "inhibition in vivo at 0.1 mg/kg", "setting": "PAF-induced hypotension; 5 min, i.v., 5 min.", "result": 100, "unit": "%"}, {"measurement": "inhibition in vivo at 1 mg/kg", "setting": "PAF-induced hypotension; 1 hr.", "result": 33, "unit": "%"}, {"measurement": "inhibition in vivo at 1 mg/kg", "setting": "PAF-induced hypotension; 2 hr.", "result": 51, "unit": "%"}, {"measurement": "inhibition in vivo at 1 mg/kg", "setting": "PAF-induced hypotension; 4 hr.", "result": 56, "unit": "%"}, {"measurement": "inhibition in vivo at 1 mg/kg", "setting": "PAF-induced hypotension; 6 hr.", "result": 59, "unit": "%"}, {"measurement": "inhibition in vivo at 1 mg/kg", "setting": "PAF-induced hypotension; 8 hr.", "result": 47, "unit": "%"}, {"measurement": "inhibition in vivo at 3 mg/kg", "setting": "PAF-induced hypotension; 1 hr.", "result": 79, "unit": "%"}, {"measurement": "inhibition in vivo at 3 mg/kg", "setting": "PAF-induced hypotension; 2 hr.", "result": 83, "unit": "%"}, {"measurement": "inhibition in vivo at 3 mg/kg", "setting": "PAF-induced hypotension; 4 hr.", "result": 87, "unit": "%"}, {"measurement": "inhibition in vivo at 3 mg/kg", "setting": "PAF-induced hypotension; 6 hr.", "result": 83, "unit": "%"}, {"measurement": "inhibition in vivo at 3 mg/kg", "setting": "PAF-induced hypotension; 8 hr.", "result": 81, "unit": "%"}, {"measurement": "inhibition in vivo at 10 mg/kg", "setting": "PAF-induced hypotension; 1 hr.", "result": 96, "unit": "%"}, {"measurement": "inhibition in vivo at 10 mg/kg", "setting": "PAF-induced hypotension; 2 hr.", "result": 96, "unit": "%"}, {"measurement": "inhibition in vivo at 10 mg/kg", "setting": "PAF-induced hypotension; 4 hr.", "result": 96, "unit": "%"}, {"measurement": "inhibition in vivo at 10 mg/kg", "setting": "PAF-induced hypotension; 6 hr.", "result": 93, "unit": "%"}, {"measurement": "inhibition in vivo at 10 mg/kg", "setting": "PAF-induced hypotension; 8 hr.", "result": 90, "unit": "%"}, {"measurement": "preventive ratio", "setting": "[3]", "result": 57, "unit": "%"}]}
